Calls of active or inactive are those of the source.
How the values were obtained:
[1] = target: T1, Histone-lysine N-methyltransferase NSD2 (Homo sapiens, UniProt O96028); type: biochemical
T1 sequence (O96028 whole entry): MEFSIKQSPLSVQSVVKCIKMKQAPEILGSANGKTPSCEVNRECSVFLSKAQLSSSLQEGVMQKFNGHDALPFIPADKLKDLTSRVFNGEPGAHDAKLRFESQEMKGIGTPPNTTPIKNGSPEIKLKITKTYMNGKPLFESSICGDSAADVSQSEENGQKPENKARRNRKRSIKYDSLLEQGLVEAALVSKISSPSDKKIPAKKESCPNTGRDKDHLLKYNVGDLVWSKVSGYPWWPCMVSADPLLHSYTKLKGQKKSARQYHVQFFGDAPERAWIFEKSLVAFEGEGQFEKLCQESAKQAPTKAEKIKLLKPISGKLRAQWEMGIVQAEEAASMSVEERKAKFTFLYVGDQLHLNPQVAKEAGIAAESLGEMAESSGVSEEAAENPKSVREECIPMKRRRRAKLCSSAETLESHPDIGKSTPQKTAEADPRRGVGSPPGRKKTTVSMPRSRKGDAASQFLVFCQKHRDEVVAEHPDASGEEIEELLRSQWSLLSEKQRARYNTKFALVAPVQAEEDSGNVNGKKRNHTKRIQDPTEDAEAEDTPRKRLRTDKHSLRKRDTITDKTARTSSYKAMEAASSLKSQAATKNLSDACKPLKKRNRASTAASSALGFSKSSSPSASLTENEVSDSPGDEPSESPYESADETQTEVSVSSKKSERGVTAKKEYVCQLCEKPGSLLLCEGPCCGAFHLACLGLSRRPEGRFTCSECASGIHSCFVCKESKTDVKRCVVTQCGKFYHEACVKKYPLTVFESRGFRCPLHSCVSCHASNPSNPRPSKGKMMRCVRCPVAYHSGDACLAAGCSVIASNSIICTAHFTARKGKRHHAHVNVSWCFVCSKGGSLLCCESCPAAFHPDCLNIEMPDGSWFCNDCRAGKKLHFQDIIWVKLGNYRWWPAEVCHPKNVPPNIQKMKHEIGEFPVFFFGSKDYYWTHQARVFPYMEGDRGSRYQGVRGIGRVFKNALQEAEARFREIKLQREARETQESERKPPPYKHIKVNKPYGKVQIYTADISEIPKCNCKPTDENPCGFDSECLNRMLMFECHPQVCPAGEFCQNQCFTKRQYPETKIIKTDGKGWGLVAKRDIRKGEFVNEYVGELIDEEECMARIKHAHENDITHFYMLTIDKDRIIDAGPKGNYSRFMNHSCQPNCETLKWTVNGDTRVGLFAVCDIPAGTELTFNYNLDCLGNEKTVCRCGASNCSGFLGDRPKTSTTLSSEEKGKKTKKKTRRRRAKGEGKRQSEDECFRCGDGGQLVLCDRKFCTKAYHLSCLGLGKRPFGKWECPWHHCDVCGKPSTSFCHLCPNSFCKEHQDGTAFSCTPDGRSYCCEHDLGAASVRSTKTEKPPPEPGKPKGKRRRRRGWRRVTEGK

[2] = target: T2, Tyrosyl-DNA phosphodiesterase 2 (Homo sapiens, UniProt O95551); assay: human TDP2 enzyme inhibitors, dose response, biochemical, epi absorbance, IC50 (AID 743297)
T2 sequence (O95551 whole entry): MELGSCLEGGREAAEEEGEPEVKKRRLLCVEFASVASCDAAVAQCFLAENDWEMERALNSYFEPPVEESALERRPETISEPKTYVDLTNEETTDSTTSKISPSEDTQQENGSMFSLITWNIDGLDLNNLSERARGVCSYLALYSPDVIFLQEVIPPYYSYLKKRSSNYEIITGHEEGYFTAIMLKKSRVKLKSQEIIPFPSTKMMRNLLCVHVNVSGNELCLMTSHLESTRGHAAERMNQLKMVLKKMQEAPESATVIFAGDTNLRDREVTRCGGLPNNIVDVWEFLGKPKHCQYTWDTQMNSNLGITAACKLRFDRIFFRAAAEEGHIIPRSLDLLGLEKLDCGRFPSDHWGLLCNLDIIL

[3] = tested on: BJ; assay: cytotoxicity toward BJ-TERT fibroblasts, dose response, cell-based, RAS-independent, luminescence (AID 1933); type: functional; settings: Homo sapiens
[4] = tested on: BJ; assay: cells; type: functional, cell-based; settings: Homo sapiens
[5] = tested on: BJ; assay: cytotoxicity toward BJ-TERT-LT-ST fibroblasts, dose response, cell-based, RAS-independent, luminescence (AID 1935); type: functional; settings: Homo sapiens;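 note: BJ fibroblasts immortalized with TERT plus LT and ST oncogenes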
[6] = cytotoxicity toward DRD oncogenic fibroblasts, dose response, cell-based, non-viral oncogenic, luminescence (AID 1934); type: functional; settings: Homo sapiens
[7] = target: T3, Replicative DNA helicase DnaB (Mycobacterium tuberculosis, UniProt P9WMR3); assay: DnaB intein splicing inhibitors, dose response, biochemical, cell-free fluorescence (AID 449749); type: functional
T3 sequence (P9WMR3 whole entry): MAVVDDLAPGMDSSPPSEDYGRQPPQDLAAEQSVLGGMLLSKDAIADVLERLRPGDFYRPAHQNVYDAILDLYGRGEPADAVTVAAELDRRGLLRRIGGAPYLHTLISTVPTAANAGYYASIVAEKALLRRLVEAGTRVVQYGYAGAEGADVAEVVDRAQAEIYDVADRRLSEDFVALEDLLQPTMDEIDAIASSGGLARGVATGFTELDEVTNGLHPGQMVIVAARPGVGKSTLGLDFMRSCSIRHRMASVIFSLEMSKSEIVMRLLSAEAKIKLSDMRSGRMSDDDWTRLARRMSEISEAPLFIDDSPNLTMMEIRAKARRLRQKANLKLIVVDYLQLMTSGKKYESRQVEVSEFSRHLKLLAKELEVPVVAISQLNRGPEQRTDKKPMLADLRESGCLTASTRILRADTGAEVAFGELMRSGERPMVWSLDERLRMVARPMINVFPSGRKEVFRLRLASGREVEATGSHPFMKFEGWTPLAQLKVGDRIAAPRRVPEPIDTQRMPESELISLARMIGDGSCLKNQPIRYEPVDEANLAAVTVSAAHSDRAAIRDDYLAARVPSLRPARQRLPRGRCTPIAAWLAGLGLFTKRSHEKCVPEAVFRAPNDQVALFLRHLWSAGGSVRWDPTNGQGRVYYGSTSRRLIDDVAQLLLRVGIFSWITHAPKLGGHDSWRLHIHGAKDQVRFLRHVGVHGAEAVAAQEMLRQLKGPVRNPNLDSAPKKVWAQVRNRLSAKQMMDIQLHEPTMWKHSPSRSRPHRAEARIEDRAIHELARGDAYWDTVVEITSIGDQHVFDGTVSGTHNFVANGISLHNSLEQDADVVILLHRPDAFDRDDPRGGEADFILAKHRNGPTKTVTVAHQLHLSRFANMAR

[8] = target: T4, Protein RecA (Mycobacterium tuberculosis, UniProt P9WHJ3); assay: Fluorescence Cell-Free Homogeneous Dose Retest to Identify Inhibitors of RecA-Intein Splicing Activity. [Related pubchem assays (depositor defined):AID2097, AID2223, AID489010, AID492950]; type: functional
T4 sequence (P9WHJ3 whole entry): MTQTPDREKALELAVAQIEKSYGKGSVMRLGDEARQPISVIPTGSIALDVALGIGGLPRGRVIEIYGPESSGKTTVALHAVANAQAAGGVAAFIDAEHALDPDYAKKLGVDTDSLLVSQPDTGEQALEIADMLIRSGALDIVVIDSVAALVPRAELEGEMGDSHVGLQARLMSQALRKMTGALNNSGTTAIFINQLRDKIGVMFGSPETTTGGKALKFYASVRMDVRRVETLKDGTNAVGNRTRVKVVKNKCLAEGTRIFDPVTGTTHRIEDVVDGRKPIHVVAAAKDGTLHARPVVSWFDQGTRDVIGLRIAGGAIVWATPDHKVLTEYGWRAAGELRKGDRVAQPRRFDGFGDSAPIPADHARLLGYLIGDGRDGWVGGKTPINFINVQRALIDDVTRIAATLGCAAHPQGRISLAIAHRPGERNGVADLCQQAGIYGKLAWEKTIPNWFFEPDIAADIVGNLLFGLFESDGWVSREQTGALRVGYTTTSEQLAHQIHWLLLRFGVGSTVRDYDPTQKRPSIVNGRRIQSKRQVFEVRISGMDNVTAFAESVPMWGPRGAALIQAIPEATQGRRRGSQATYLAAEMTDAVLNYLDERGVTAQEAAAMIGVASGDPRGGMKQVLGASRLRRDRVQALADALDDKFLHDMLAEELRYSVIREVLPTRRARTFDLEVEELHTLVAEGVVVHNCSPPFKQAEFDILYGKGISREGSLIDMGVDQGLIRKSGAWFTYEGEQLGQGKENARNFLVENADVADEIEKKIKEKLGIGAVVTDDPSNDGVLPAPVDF

[9] = A549 cell cytotoxicity, dose response, cytotoxicity control, plate reader, cherry-pick, antagonist series (AID 743412); type: functional, cell-based
[10] = HepG2 cell cytotoxicity, dose response, cytotoxicity control, plate reader, cherry-pick, antagonist series (AID 743416); type: functional, cell-based
[11] = LGR2 antagonists, dose response, cell-based, HEK293, CRE-luciferase reporter, cherry pick, set 2 (AID 743343); type: functional;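 note: transfected cells were stimulated with diluted bursicon conditioned medium after compound addition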
[12] = MC4R antagonists, dose response, counter-screen for LGR2 antagonist project, cell-based, plate reader, cherry pick (AID 743444); type: functional;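 note: transfected HEK 293 cells stimulated with alpha-MSH peptide; potency of inhibitors of the alpha-MSH evoked signal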
[13] = HEK293 cell cytotoxicity, dose response, cytotoxicity control, plate reader, cherry-picked samples (AID 743446); type: functional, cell-based
[14] = target: T5, fMet-Leu-Phe receptor (Homo sapiens, UniProt P21462); assay: FPR ligands, dose response (AID 519); type: functional
T5 sequence (P21462 whole entry): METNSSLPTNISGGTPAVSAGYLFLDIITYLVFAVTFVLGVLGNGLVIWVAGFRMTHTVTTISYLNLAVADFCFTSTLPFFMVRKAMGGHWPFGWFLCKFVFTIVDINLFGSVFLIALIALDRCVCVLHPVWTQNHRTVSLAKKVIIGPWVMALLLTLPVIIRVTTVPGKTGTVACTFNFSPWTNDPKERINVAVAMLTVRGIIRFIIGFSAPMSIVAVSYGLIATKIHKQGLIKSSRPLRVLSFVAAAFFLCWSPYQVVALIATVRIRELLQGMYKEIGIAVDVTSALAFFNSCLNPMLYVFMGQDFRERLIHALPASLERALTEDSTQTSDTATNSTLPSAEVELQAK

[15] = target: T6, Cytochrome P450 1A2 (Homo sapiens, UniProt P05177);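 note: PubChem cytochrome P450 panel assay, CYP1A2 panel member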
T6 sequence (P05177 whole entry): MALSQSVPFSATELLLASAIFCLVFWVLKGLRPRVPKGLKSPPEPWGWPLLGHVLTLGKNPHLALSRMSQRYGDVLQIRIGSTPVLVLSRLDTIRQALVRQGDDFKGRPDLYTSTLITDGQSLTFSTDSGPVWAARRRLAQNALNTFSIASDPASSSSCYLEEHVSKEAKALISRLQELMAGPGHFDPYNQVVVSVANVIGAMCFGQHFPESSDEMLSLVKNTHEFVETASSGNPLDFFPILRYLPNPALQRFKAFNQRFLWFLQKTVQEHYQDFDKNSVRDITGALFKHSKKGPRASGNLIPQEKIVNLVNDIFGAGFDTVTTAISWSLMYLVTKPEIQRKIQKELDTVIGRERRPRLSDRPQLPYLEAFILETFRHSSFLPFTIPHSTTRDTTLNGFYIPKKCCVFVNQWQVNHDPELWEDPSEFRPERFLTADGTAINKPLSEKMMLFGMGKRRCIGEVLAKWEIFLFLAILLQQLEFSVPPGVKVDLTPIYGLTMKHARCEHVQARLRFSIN

[16] = target: Paired box protein Pax-8 (Homo sapiens, UniProt Q06710); assay: inhibitors of PAX8-driven TPO luciferase reporter, dose response, RMG-I cells, cherry-pick (AID 687027); type: functional, cell-based;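 note: luciferase reporter driven by Pax8 target thyroperoxidase promoter measured by SteadyGlo luminescence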
Paired box protein Pax-8, sequence (Q06710 whole entry): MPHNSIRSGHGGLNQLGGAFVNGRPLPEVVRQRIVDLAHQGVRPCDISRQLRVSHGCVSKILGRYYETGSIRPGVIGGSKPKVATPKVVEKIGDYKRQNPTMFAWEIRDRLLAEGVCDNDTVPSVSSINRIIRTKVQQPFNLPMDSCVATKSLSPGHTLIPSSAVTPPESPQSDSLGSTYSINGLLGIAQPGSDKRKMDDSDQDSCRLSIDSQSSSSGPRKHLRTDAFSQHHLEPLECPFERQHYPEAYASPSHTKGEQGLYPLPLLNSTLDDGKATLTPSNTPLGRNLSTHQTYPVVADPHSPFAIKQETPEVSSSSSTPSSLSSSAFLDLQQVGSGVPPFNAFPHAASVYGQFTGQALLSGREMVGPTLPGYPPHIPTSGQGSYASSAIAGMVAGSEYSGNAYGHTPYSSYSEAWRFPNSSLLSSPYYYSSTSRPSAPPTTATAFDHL

[17] = NIH:OVCAR-3 ovarian cancer cell cytotoxicity, dose response, PAX8 inhibitor project, plate reader, dry powder samples (AID 743044); type: functional, cell-based
[18] = non-specific cell cytotoxicity, dose response, cytotoxicity control for PAX8 inhibitor project, plate reader, dry powder samples (AID 743021); type: functional, cell-based
[19] = cytotoxicity in OVCAR8 ovarian cancer cells, dose response, PAX8 project, cell-based, plate reader, dry powder samples (AID 743197); type: functional; settings: OVCAR-8

S=C(Nc1ccc2nsnc2c1)N1CCCCC1
AC50 [1]: 5.13 µM (active) | IC50 [2]: > 128 µM (inactive)

O=[N+]([O-])c1ccc(Sc2nnnn2-c2ccccc2)nc1
EC50 [3]: 6.26 µM (active) | EC50 [4]: 63.6 µM (inconclusive) | EC50 [5]: > 150 µM (inconclusive) | EC50 [6]: 9.86 µM (active) | AC50 [7]: 14.5 µM (active) | EC50 [8]: 5.61 µM (active) | AC50 [9]: 18.5 µM (active) | AC50 [10]: 15.7 µM (active) | AC50 [11]: 14.9 µM (active) | AC50 [12]: 17.6 µM (active) | AC50 [13]: 12.5 µM (active)

C[N+]1(C)[C@@H]2C[C@@H](OC(=O)[C@H](CO)c3ccccc3)C[C@H]1[C@@H]1O[C@@H]12
Ki [14]: > 66.7 µM (inactive)

COC(=O)Cc1n[nH]c2c1C(C1C=CCCC1)C(C#N)=C(N)O2 (configuration not stated)
Ki [14]: > 66.7 µM (inactive)

Cc1cccc(Cn2ncc(Cl)c(Cl)c2=O)c1
AC50 [7]: 27.5 µM (active) | EC50 [8]: 6.04 µM (active) | AC50 [9]: 30 µM (active) | AC50 [10]: 37.3 µM (active) | AC50 [13]: 17.4 µM (active) | AC50 [15]: 22.4 µM (inconclusive)

C[C@H](CO)N1C[C@H](C)[C@H](CN(C)S(=O)(=O)c2ccc(Cl)cc2)Oc2c(NC(=O)Nc3ccc(F)cc3)cccc2C1=O
AC50 [16]: 10.2 µM (active) | AC50 [17]: 31.8 µM (active) | AC50 [18]: 51.4 µM (active) | AC50 [19]: 31.8 µM (active)

C[C@@H]1CCCCO[C@H](CN(C)S(=O)(=O)c2ccc(F)cc2)[C@H](C)CN([C@@H](C)CO)C(=O)c2cc(NS(=O)(=O)c3ccc(Cl)cc3)ccc2O1
AC50 [16]: 9.75 µM (active) | AC50 [18]: 68.4 µM (active)

Reference: ChEMBL document CHEMBL1201862, “PubChem BioAssay data set” (2004)
